# Test results reported in article PMC5706701, “Development of a homogenous high-throughput assay for inositol hexakisphosphate kinase 1 activity” (PLoS ONE, 2017).
# “And” between values parts separate entries of the source, which are not always exact repeats. Equal values may be shown once. Where a name gives a salt, the structure may show the parent alone. Read-outs that look alike come from different tables or passages of the source.
# Target: T1, Human IP6K1 (Homo sapiens, UniProt Q92551)
# T1 construct: GST (N, cleaved yes); made in house; host or cells: C43 E. coli, pGEX-6P-2
# Experiment: IP6K1 high-throughput screen of the Sigma LOPAC (ADP-Glo Max, single point);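 further: final compound concentration 10µM in 5% DMSO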
# Assay type: biochemical
# [1] = Sigma LOPAC single-point screen, ADP-Glo Max raw signal per well
# [2] = Sigma LOPAC single-point screen, Z-score from plate average and StDev
# [3] = LOPAC single-point screen, ADP-Glo Max luminescence raw signal per well
# [4] = LOPAC single-point screen, Z-score relative to plate average and StDev
# [5] = LOPAC single-point screen, ADP-Glo Max raw signal per well
# [6] = LOPAC single-point screen, Z-score from raw signal with plate average and StDev
# [7] = LOPAC single-point screen, Z-score against plate average and StDev
# [8] = LOPAC single-point screen, Z-score from plate average and StDev
# T1 sequence (Q92551 whole entry): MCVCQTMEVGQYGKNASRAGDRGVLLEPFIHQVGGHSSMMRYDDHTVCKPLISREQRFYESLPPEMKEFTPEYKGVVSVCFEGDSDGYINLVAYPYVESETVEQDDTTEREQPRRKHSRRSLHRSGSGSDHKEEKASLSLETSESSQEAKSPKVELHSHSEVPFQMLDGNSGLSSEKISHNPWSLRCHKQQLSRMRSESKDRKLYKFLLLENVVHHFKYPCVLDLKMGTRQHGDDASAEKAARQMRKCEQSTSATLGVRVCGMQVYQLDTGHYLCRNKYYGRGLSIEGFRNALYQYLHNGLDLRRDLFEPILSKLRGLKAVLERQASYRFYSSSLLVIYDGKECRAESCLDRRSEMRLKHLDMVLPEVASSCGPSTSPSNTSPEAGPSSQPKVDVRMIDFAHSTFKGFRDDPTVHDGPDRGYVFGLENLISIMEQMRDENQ
compound,measurement,setting,value
COc1cc2c(cc1C(F)(F)F)N(C(=O)Nc1cc(F)cc(-c3cccnc3)c1)CC2 [SB 228357],Raw Signal,[1],58844
same,Z-score,[2],0.7468
OCC1OC(n2cnc3ccccc32)C(O)C1O [D-ribofuranosylbenzimidazole],Raw Signal,[3],49673
same,Z-score,[4],-1.116
NNC(=O)c1ccc(O)cc1 [4-Hydroxybenzhydrazide],Raw Signal,[1],59100
same,Z-score,[2],0.7987
COc1ccc2c(c1)c(CC(=O)O)c(C)n2C(=O)c1ccccc1,Raw Signal,[3],53454
same,Z-score,[4],-0.7854
NC(=O)COc1c(F)cc(SCCNS(=O)(=O)c2ccccc2)cc1F,Raw Signal,[5],52796
same,Z-score,[6],-0.2684
CC1=C(/C=C/C(C)=C/C=C/C(C)=C\C(=O)O)C(C)(C)CCC1 [13-cis-retinoic acid],Raw Signal,[5],55954
same,Z-score,[7],-0.01356
CC(C)C1C2CCC(C2)C1N.Cl (racemic) [AGN 192403 hydrochloride],Raw Signal,[3],53820
same,Z-score,[4],-0.7209
Cn1c(=O)c2c(nc(C=Cc3cccc(Cl)c3)n2C)n(C)c1=O [8-(3-Chlorostyryl)caffeine],Raw Signal,[5],56359
same,Z-score,[7],0.2421
C[C@](N)(CCP(=O)(O)O)C(=O)O.Cl [(S)-MAP4 hydrochloride],Raw Signal,[5],53240
same,Z-score,[6],-0.1938
CN(C)CCCN1c2ccccc2Sc2ccccc21 [Promazine hydrochloride],Raw Signal,[3],63198
same,Z-score,[8],1.394
CC(C)NC[C@H](O)COc1cccc2ccccc12 [(S)-Propranolol hydrochloride],Raw Signal,[1],59687
same,Z-score,[2],0.7117
N[C@@H](C(=O)N[C@@H]1C(=O)N2C(C(=O)O)=C(Cl)CS[C@H]12)c1ccccc1 [Cefaclor],Raw Signal,[5],57158
same,Z-score,[6],-0.133
CC(Oc1ccc(Oc2cnc3ccc(Cl)cc3n2)cc1)C(=O)O (stereo not shown) [XK469],Raw Signal,[5],55038
same,Z-score,[6],-0.1915
CNCC(O)c1ccc(O)c(O)c1.Cl (racemic) [(±)-Epinephrine hydrochloride],Raw Signal,,49297
same,Z-score,,-1.192
CSc1nc(N)c2ncn([C@@H]3O[C@H](COP(=O)([O-])OP(=O)([O-])OP(=O)([O-])[O-])[C@@H](O)[C@H]3O)c2n1.[Na+].[Na+].[Na+].[Na+],Raw Signal,[5],58230
same,Z-score,[7],0.05581
CCCCC1(C2CCCC2)Cc2cc(OCC(=O)O)c(Cl)c(Cl)c2C1=O (stereo in doubt) [R(+)-Butylindazone],Raw Signal,[5],53463
same,Z-score,[6],-0.3461
CNC(=O)[C@H]1O[C@@H](n2cnc3c(N)ncnc32)[C@H](O)[C@@H]1O [5 -N-Methyl carboxamidoadenosine],Raw Signal,[3],66682
same,Z-score,[8],1.544
C[C@@H](N)Cc1cnc[nH]1.Cl.Cl,Raw Signal,,55341
same,Z-score,,0.03533
CNCC[C@@H](Oc1ccccc1C)c1ccccc1 [Tomoxetine],Raw Signal,[1],58582
same,Z-score,[2],0.497
CC(C)(C)c1o[nH]c(=O)c1CC(N)C(=O)O (stereo not shown) [ATPA],Raw Signal,[5],57342
same,Z-score,[6],-0.1006
CCN(CC)CCCC(C)Nc1c2ccc(Cl)cc2nc2ccc(OC)cc12 (stereo not shown) [Quinacrine dihydrochloride],Raw Signal,[1],60550
same,Z-score,[2],0.8794
CN(N=O)c1cc(O)ccc1O [Dephostatin],Raw Signal,[5],55962
same,Z-score,[7],0.1615
Cl.Cl.c1ccc(CCCN2CCN(CCOC(c3ccccc3)c3ccccc3)CC2)cc1 [GBR-12935 dihydrochloride],Raw Signal,[3],62907
same,Z-score,[8],1.572
Cc1nc2sccn2c(=O)c1CCN1CCC(=C(c2ccc(F)cc2)c2ccc(F)cc2)CC1 [Ritanserin],Raw Signal,[5],56847
same,Z-score,[7],0.1599
Cc1cccc(C)c1OCC(C)N.Cl (stereo not shown) [Mexiletene hydrochloride],Raw Signal,[3],50431
same,Z-score,[4],-0.6658
CC(C)(C)[C@]1(O)CCN2C[C@H]3c4ccccc4CCc4cccc(c43)[C@@H]2C1 [(+)-Butaclamol hydrochloride],Raw Signal,[3],54506
same,Z-score,[4],-0.6001
Cn1c(=O)c2[nH]cnc2n(C)c1=O [Theophylline],Raw Signal,[3],53365
same,Z-score,[4],-0.5166
CNCCCC12CCC(c3ccccc31)c1ccccc12 [Maprotiline hydrochloride],Raw Signal,[5],54786
same,Z-score,[7],0.06595
Oc1ccc2c3c1O[C@H]1c4oc5ccccc5c4C[C@@]4(O)[C@@H](C2)N(CC2CC2)CC[C@]314 [Naltriben methanesulfonate],Raw Signal,[5],55337
same,Z-score,[7],0.1585
CN[C@@H]1C[C@@H](c2ccc(Cl)c(Cl)c2)c2ccccc21 [Indatraline hydrochloride],Raw Signal,[5],53926
same,Z-score,[7],-0.07855
CC(=O)Oc1cc(C(C)C)c(OCCN(C)C)cc1C [Moxisylyte hydrochloride],Raw Signal,[5],54969
same,Z-score,[7],0.0967
O=C(/C=C/c1ccc(O)c(O)c1)OCCc1ccccc1 [Caffeic acid phenethyl ester],Raw Signal,[3],53915
same,Z-score,[4],-0.7042
N=C(N)NC(=O)c1nc(Cl)c(N)nc1N [Amiloride hydrochloride],Raw Signal,[1],63890
same,Z-score,[2],1.0527
O=C(O)c1nn(Cc2ccc(Cl)cc2Cl)c2ccccc12 [Lonidamine],Raw Signal,[5],56276
same,Z-score,[7],0.3163
N[C@@H]1CON=C1O [D-Cycloserine],Raw Signal,[5],55913
same,Z-score,[6],-0.3523
R(-)-Me5,Raw Signal,[5],53002
same,Z-score,[6],-0.2338
"O=C(O)[C@H]1C[C@H](C(=O)O)N1 (relative stereo) [trans-Azetidine-2,4-dicarboxylic acid]",Raw Signal,[5],57895
same,Z-score,[7],-0.003188
Nc1nc(OCc2ccccc2)c2nc[nH]c2n1 [O6-benzylguanine],Raw Signal,[5],56623
same,Z-score,[6],-0.2272
COc1cccc(C(=O)NCCN2CCN(c3ccc(Cl)cc3)CC2)c1,Raw Signal,[5],55564
same,Z-score,[6],-0.4137
COc1ccc(CN(CCN(C)C)c2ccccn2)cc1 [Pyrilamine maleate],Raw Signal,[1],60252
same,Z-score,[2],0.9844
CCCN(CCC)C(=O)Cc1c(-c2ccc(Cl)cc2)nc2c(Cl)cc(Cl)cn12 [CB34],Raw Signal,[1],60254
same,Z-score,[2],0.4123
CNCC[C@@H](Oc1ccc(C(F)(F)F)cc1)c1ccccc1.Cl [R-(-)-Fluoxetine hydrochloride],Raw Signal,[3],63921
same,Z-score,[8],1.778
CC[C@H](NC(=O)c1c(C)c(-c2ccccc2)nc2ccccc12)c1ccccc1 [SB 222200],Raw Signal,[5],57369
same,Z-score,[6],-0.09583
COC(=O)c1c(-c2cc(OC)c(OC)c(OC)c2)c2ccnc(OCc3ncccn3)c2c(=O)n1Cc1ccnc(C)c1 [T-0156],Raw Signal,[3],53574
same,Z-score,[4],-0.476
CN(C)CCCN1c2ccccc2CCc2ccc(Cl)cc21 [Clomipramine hydrochloride],Raw Signal,[1],60543
same,Z-score,[2],0.4632
Clc1ccc2c(c1)C(N1CCNCC1)=Nc1ccccc1O2 [Amoxapine],Raw Signal,[3],50961
same,Z-score,[4],-1.224
C#C[C@]1(O)CC[C@H]2[C@@H]3CCC4=Cc5oncc5C[C@]4(C)[C@H]3CC[C@@]21C [Danazol],Raw Signal,[5],54357
same,Z-score,[6],-0.1645
CC(C)NCC(O)COc1cccc2[nH]ccc12 (stereo not drawn) [S(-)-Pindolol],Raw Signal,[3],52829 and 52276
NC(=O)CC[C@H](N)C(=O)O [L-Glutamine],Raw Signal,[1],57892
same,Z-score,[2],0.5534
CN(C)CCC=C1c2ccccc2CCc2ccccc21 [Amitriptyline hydrochloride],Raw Signal,[3],54808
same,Z-score,[4],-0.5469
O=C(Cc1ccc(Cl)c(Cl)c1)OCCN1CCCC1 [AC 915 oxalate],Raw Signal,[5],57662
same,Z-score,[7],-0.04423
CC1=NN=C(c2ccc(N)cc2)c2cc3c(cc2C1)OCO3.Cl [GYKI 52466 hydrochloride],Raw Signal,[3],61943
same,Z-score,[8],1.376
O=C(O)c1cc(O)c2ccc(Cl)cc2n1 [7-Chlorokynurenic acid],Raw Signal,[5],53866
same,Z-score,[6],-0.2642
O=C(O)CCC/C=C\C[C@@H]1[C@@H](/C=C/[C@H](O)C2Cc3ccccc3C2)[C@@H](F)C[C@@H]1O [AL-8810],Raw Signal,[3],53863
same,Z-score,[4],-0.7133
N=C(N)c1ccccc1 [Benzamidine hydrochloride],Raw Signal,[5],57181
same,Z-score,[6],-0.1289
CN1C(C)(C)CCCC1(C)C [Pempidine tartrate],Raw Signal,[1],56899
same,Z-score,[2],0.421
COc1ccc2[nH]cc(CCN(C)C)c2c1.O=C(O)C(=O)O [5-Methoxy DMT oxalate],Raw Signal,[1],59658
same,Z-score,[2],0.8846
CN(C)c1cc2c(Nc3ccc4c(cnn4Cc4ccccc4)c3)ncnc2cn1 [GW2974],Raw Signal,[5],53289
same,Z-score,[6],-0.3814
"C[C@]12CC[C@@H](O)C[C@@H]1CC[C@@H]1[C@@H]2CC[C@]2(C)[C@@H](O)CC[C@@H]12 [5alpha-Androstane-3alpha,17beta-diol]",Raw Signal,[3],54542
same,Z-score,[4],-0.5937
CN(C)CCC=C1c2ccccc2C=Cc2ccccc21 [Cyclobenzaprine hydrochloride],Raw Signal,[1],63136
same,Z-score,[2],0.9199
"CC(=O)C(C)=O [2,3-Butanedione]",Raw Signal,[5],53441
same,Z-score,[6],-0.3505
"CCCn1c(=O)c2c(ncn2C)n(CCC)c1=O [1,3-Dipropyl-7-methylxanthine]",Raw Signal,[1],58298
same,Z-score,[2],0.6359
[N-]=[N+]=Nc1ccc(C(=O)CSC[C@H](NC(=O)CC[C@H](N)C(=O)O)C(=O)NCC(=O)O)cc1 [S-(p-Azidophenacyl)glutathione],Raw Signal,[5],57217
same,Z-score,[6],-0.1226
Br.CCSC(=N)N [S-Ethylisothiourea hydrobromide],Raw Signal,[5],55596
same,Z-score,[7],0.08712
